What was measured:
[1] = tested on: mice placed on 3% DSS in the drinking water to induce colitis; assay: DSS-induced colitis in mice, test formulations given in the diet; assay type: in vivo, C57BL/6 mice; settings: 3% DSS for four days
Procedure: Phosal 35 SB, a soy lecithin oil containing approximately 35 wt. % phosphatidylcholine (PC), was placed in glass beaker to which 5ASA (or a 5ASA containing pharmaceutical) was added under moderate heat, about 40° C., and stirring until a 1:1 weight ratio was attained. The resulting oil-based formulation was coated with a pH-sensitive polymer, e.g., MultiSal™, or Eudragrit®-S, to form polymer encapsulated micro-spheres of the 5ASA/PC composition. These encapsulated micro-spheres are formed so that the 5ASA and PC are released only when the drug reaches the distal gut, where the pH is 7 or above and the polymer coating degrades. […]
Groups of C57BL/6 mice were exposed to different diets and their daily food consumption (grams/day) were measured over a four day period of time. […]
Now, the 5ASA:PL formulations can be compared to 5ASA in treating the colitis type disorder in mice. […] The efficacy of the treating compositions were determined by measuring colon tissue weight per length.
Groups of mice were placed on drinking water comprising saline containing 3% DSS for four days to induce a colitis type disorder and then treated with the compositions of this invention. The appearance of blood as indicated by an increased hemoglobin content in the feces was measured to determine the efficacy of 5ASA versus the 5ASA:PL formulations. […]

[2] = tested on: rats with colitis induced by 4% dextran sodium sulfate (DSS) in drinking water; assay: Recovery from DSS-induced colitis in rats, 5ASA 100 mg/kg b.i.d. intragastrically for 6 days; assay type: in vivo, Sprague Dawley male rats
Procedure: Rats were placed on drinking water containing 4% dextran sodium sulfate (DSS) for 5 days and 20 hours to induce colitis after which they were returned to normal drinking water. The animals were then intragastrically administered twice daily for 6 subsequent days with: (a) saline (DSS control); (b) 5ASA at a dose of 100 mg/kg; (c) a 1:1 wt. ratio of 5ASA and Phosal 35 SB (an oil-based formulation); or (d) a 1:2 wt. ratio of 5ASA and Phospholipon 90G (an aqueous lipidic suspension) at the same dose of 5ASA, 100 mg/kg, b.i.d. The formulations (c) and (d) are phosphatidylcholine (PC) associated 5ASA formulations, where the PC and 5ASA are associated at the molecular level. These treatments are designed to compare the efficacy of 5ASA and two different PC:5ASA formulations.
At 1, 3 and 6 days, rats were euthanized and colonic tissue, blood and fecal matter were collected for biochemical and histological analyses to assess colonic inflammation and GI bleeding. A separate group of rats were not placed on DSS and served as “normal controls.”
Referring now to FIG. 8, changes in hematocrit during the 6 day recovery period were measured from the euthanized rats. Changes in hematocrit levels represent an indirect estimate of anemia and internal (GI) bleeding among the groups over the 6 day recovery period.
Colonic inflammation and injury were assessed by measuring a number of biochemical and histological indices. First, tissue edema were assessed by measuring tissue wet weight/unit length.
Colonic myeloperoxidase (MPO) activity, a biochemical marker of neutrophil infiltration into the tissue, was measured as another marker of inflammation.
Tissue histology was scored (under blinded conditions) for signs of injury and inflammation. To assess inflammation we scored the number of inflammatory cells in the lamina propia of the colonic submucosa using a scoring system from 1 (normal) to 4 (highly inflamed).
To assess colonic mucosal injury, a histological scoring system was used, where: 0=normal mucosa; 1=surface injury; 2=injury extending into the mid glandular region; 3=injury extending into the deep glandular region; and 4=injury extending into the serosal (muscle) layer.

[3] = tested on: rats with colitis induced by 4% dextran sodium sulfate (DSS) in drinking water; assay: Recovery from DSS-induced colitis in rats, 5ASA 50 mg/kg BID intragastrically for 3 days; assay type: in vivo, Sprague Dawley male rats
Procedure: The following experiments were designed to compare the efficacy of 5ASA versus 5ASA:PC formulations in treating rats that had been subjected to colitis induced by adding 4% dextran sodium sulfate (DSS) to their drinking water for over 5 days (5 day, 20 hours) and then returned to normal drinking water. The rats were then treated with 5ASA, in this experiment at a lower dose (50 mg/kg, BID) than that previously studied, in the absence or presence to a PL component for 3 days post DSS induced colitis.
Thirty two healthy male rats used in the study. […] Group 1 were given drinking water without added DSS. Groups 2-4 received drinking water containing 4% DSS for 6 days. At day 6, Group 2 received 1 mL saline BID intra gastrically. Group 3 received 5ASA (50 mg/Kg) BID intra gastrically. Group 4 received 5ASA (50 mg/Kg):Phosal 35SB:MCT oil (1:1:0.3), referred to heretofore as 5ASA:PC BID intra gastrically, where MCT=Medium Chain Triglyceride.
At day 9, the rats were euthanized and the following were measured: (a) hematocrit, (b) fecal hemoglobin, (c) colon weight/length, (d) colon myeloperoxidase (MPO), (e) colonic surface hydrophobicity and (f) colon histology.
In this study, rats were placed on regular drinking water (Group 1) or water containing 4% DSS and then intragastrically administered: saline (Group 2); 5ASA (Group 3) at a dose of 50 mg/kg BID); or 5ASA:PC (P35SB at 1:1 wt ratio) (Group 4) for 3 days at which time the following changes were seen.

C57BL/6 mice = assay: Induction of colitis in mice by increasing DSS concentrations in drinking water for 4 days; assay type: in vivo; settings: 0% to 4% DSS in drinking water, four days
From the text: Groups of four C57BL/6 mice were exposed to differing amount of dextran sodium sulfate (DSS) in their drinking water for a four day period of time. The mice were then euthanized and colon tissue weight per length measurements for each group of mice were made.
Groups of C57BL/6 mice were exposed to differing amount of dextran sodium sulfate (DSS) in their drinking water for a four day period of time. The mice fecal hemoglobin measurements were made at the end of the four day period.

## Nc1ccc(O)c(C(=O)O)c1 [5ASA, 5-amino salicylic acid]
[1]
  colonic inflammation as colon tissue weight per length: partial reversal
[2]; 100 mg/kg b.i.d., 3 to 6 days post-DSS
  overall colonic inflammation and tissue injury / recovery from colitis (biochemical and histological markers, conclusions): significantly reduces colonic inflammation and tissue injury
[2]; 3 and 6 days, 100 mg/kg b.i.d.
  number of inflammatory cells in lamina propia of colonic submucosa, score 1 (normal) to 4 (highly inflamed): reduced number of inflammatory cells
[2]; 3 days post-DSS, 100 mg/kg b.i.d., vs saline-treated controls
  tissue edema (tissue wet weight/unit length): reduced by 5ASA (non significantly)
[2]; day 3, 100 mg/kg b.i.d.
  colonic myeloperoxidase (MPO) activity: reduction
[2]; first day of the recovery period, 100 mg/kg b.i.d.
  fecal hemoglobin (fecal blood loss): may have had a beneficial effect in reducing fecal blood loss
[3]; 50 mg/kg BID, 3 days post DSS
  colon MPO activity (DSS-induced inflammation): partially
  colon weight/length (DSS-induced mucosal edema): partially reversed
  fecal hemoglobin (DSS-induced GI fecal blood loss): partially reversed
[3]; 50 mg/kg twice daily intragastrically
  overall recovery from DSS-induced colitis and GI bleeding (conclusion): promotes tissue recovery from DSS-induced colitis and reduces GI bleeding

## dextran sodium sulfate [DSS]
C57BL/6 mice
  colonic inflammation or edema as colon tissue weight per length: 3% DSS was shown to cause the greatest increase
  fecal hemoglobin: increased fecal hemoglobin with increasing concentration
